Measured values from patent publication US9809858B2, “O-glycan pathway ovarian cancer signature” (H. LEE MOFFITT CANCER CENTER AND RESEARCH INSTITUTE, INC., priority 2012, dated 2017).

Columns and labels:
[1] = tested on: OV2008 OVCA cell line; test: CellTiter-Blue cell viability assay, OV2008; assay type: cell-based; settings: Homo sapiens; OV2008 cells, 72 hours, growth/viability
Text: (§1) OVCA cell lines were obtained from the American Type Culture Collection (Manassas, Va.; CAOV3, OV90, OVCAR3, SKOV3), from the European Collection of Cell Cultures (Salisbury, UK; A2780CP, A2780S), from Kyoto University (Kyoto, Japan; CHI, CHIcisR, M41, M41CSR, Tyknu, and TyknuCisR), or as kind gifts (A2008, C13, CAOV2, HeyA8, IGR-OV1, IMCC3, IMCC5, MCAS, OV2008, OVCA420, OVCA429, OVCA432, OVCA433, FUOV1, PEO1, PEO4, SK-OV-6, T8, TOV-112D, TOV-21-G, Dov13, BG1, Ovary1847, OVCAR10, OVCAR8, OVCAR5, OVCAR4, OVCAR2, SK-OV-4). Cell lines were maintained in RPMI 1640 medium (Invitrogen, Carlsbad, Calif.) supplemented with 10% fetal bovine serum (Fisher Scientific, Pittsburgh, Pa.), 1% sodium pyruvate, 1% penicillin/streptomycin (Cellgro, Manassas, Va.), and 1% nonessential amino acids (HyClone, Hudson, N.H.). Mycoplasma testing was performed every 6 months, in accordance with the manufacturer's protocol (Lonza, Rockland, Me.).
(§2) Drug activity was evaluated using a high-throughput CellTiter-Blue® cell viability assay. […] Fluorescence was read at 579-nm excitation/584-nm emission using a Synergy™ 4 microplate reader (Bio-Tek Instruments, Inc., Winooski, Vt.). IC50 values were determined using a sigmoidal equilibrium model fit (XLfit 5.2, ID Business Solutions Ltd.). […]

[2] = tested on: Ovary1847 OVCA cell line; test: CellTiter-Blue cell viability assay, Ovary1847; assay type: cell-based; settings: Homo sapiens; Ovary1847 cells, 72 hours, growth/viability
Text: as §1, §2

[3] = tested on: M41CSR OVCA cell line; test: CellTiter-Blue cell viability assay, M41CSR; assay type: cell-based; settings: Homo sapiens; M41CSR cells, 72 hours, growth/viability
Text: as §1, §2

[4] = tested on: CHI OVCA cell line; test: CellTiter-Blue cell viability assay, CHI; assay type: cell-based; settings: Homo sapiens; CHI cells, 72 hours, growth/viability
Text: as §1, §2

[5] = tested on: OVCA433 OVCA cell line; test: CellTiter-Blue cell viability assay, OVCA433; assay type: cell-based; settings: Homo sapiens; OVCA433 cells, 72 hours, growth/viability
Text: as §1, §2

[6] = tested on: PEO1 OVCA cell line; test: CellTiter-Blue cell viability assay, PEO1; assay type: cell-based; settings: Homo sapiens; PEO1 cells, 72 hours, growth/viability
Text: as §1, §2

[7] = tested on: PEO4 OVCA cell line; test: CellTiter-Blue cell viability assay, PEO4; assay type: cell-based; settings: Homo sapiens; PEO4 cells, 72 hours, growth/viability
Text: as §1, §2

[8] = tested on: FUOV1 OVCA cell line; test: CellTiter-Blue cell viability assay, FUOV1; assay type: cell-based; settings: Homo sapiens; FUOV1 cells, 72 hours, growth/viability
Text: as §1, §2

[9] = tested on: CAOV2 OVCA cell line; test: CellTiter-Blue cell viability assay, CAOV2; assay type: cell-based; settings: Homo sapiens; CAOV2 cells, 72 hours, growth/viability
Text: as §1, §2

[10] = tested on: Tyknu OVCA cell line; test: CellTiter-Blue cell viability assay, Tyknu; assay type: cell-based; settings: Homo sapiens; Tyknu cells, 72 hours, growth/viability
Text: as §1, §2

[11] = tested on: OV90 OVCA cell line; test: CellTiter-Blue cell viability assay, OV90; assay type: cell-based; settings: Homo sapiens, OV-90; OV90 cells, 72 hours, growth/viability
Text: as §1, §2

[12] = tested on: SK-OV-6 OVCA cell line; test: CellTiter-Blue cell viability assay, SK-OV-6; assay type: cell-based; settings: Homo sapiens; SK-OV-6 cells, 72 hours, growth/viability
Text: as §1, §2

[13] = tested on: TOV-112D OVCA cell line; test: CellTiter-Blue cell viability assay, TOV-112D; assay type: cell-based; settings: Homo sapiens, TOV112D; TOV-112D cells, 72 hours, growth/viability
Text: as §1, §2

[14] = tested on: A2780S OVCA cell line; test: CellTiter-Blue cell viability assay, A2780S; assay type: cell-based; settings: Homo sapiens; A2780S cells, 72 hours, growth/viability
Text: as §1, §2

[15] = tested on: BG1 OVCA cell line; test: CellTiter-Blue cell viability assay, BG1; assay type: cell-based; settings: Homo sapiens, BG-1; BG1 cells, 72 hours, growth/viability
Text: as §1, §2

[16] = tested on: patients with recurrent OVCA; settings: 800-1250 mg/m^2/week, Phase II and III studies; cited from earlier work
[17] = tested on: TOV-21G OVCA cell line; test: CellTiter-Blue cell viability assay, TOV-21G; assay type: cell-based; settings: Homo sapiens, TOV21G; TOV-21G cells, 72 hours, growth/viability
Text: as §1, §2

[18] = tested on: OVCAR8 OVCA cell line; test: CellTiter-Blue cell viability assay, OVCAR8; assay type: cell-based; settings: Homo sapiens, OVCAR-8; OVCAR8 cells, 72 hours, growth/viability
Text: as §1, §2

[19] = tested on: CHIcisR OVCA cell line; test: CellTiter-Blue cell viability assay, CHIcisR; assay type: cell-based; settings: Homo sapiens; CHIcisR cells, 72 hours, growth/viability
Text: as §1, §2

[20] = tested on: SK-OV-4 OVCA cell line; test: CellTiter-Blue cell viability assay, SK-OV-4; assay type: cell-based; settings: Homo sapiens; SK-OV-4 cells, 72 hours, growth/viability
Text: as §1, §2

[21] = tested on: TyknuCisR OVCA cell line; test: CellTiter-Blue cell viability assay, TyknuCisR; assay type: cell-based; settings: Homo sapiens; TyknuCisR cells, 72 hours, growth/viability
Text: as §1, §2

[22] = tested on: C13 OVCA cell line; test: CellTiter-Blue cell viability assay, C13; assay type: cell-based; settings: Homo sapiens; C13 cells, 72 hours, growth/viability
Text: as §1, §2

[23] = tested on: OVCAR2 OVCA cell line; test: CellTiter-Blue cell viability assay, OVCAR2; assay type: cell-based; settings: Homo sapiens; OVCAR2 cells, 72 hours, growth/viability
Text: as §1, §2

[24] = tested on: A2008 OVCA cell line; test: CellTiter-Blue cell viability assay, A2008; assay type: cell-based; settings: Homo sapiens; A2008 cells, 72 hours, growth/viability
Text: as §1, §2

[25] = tested on: OVCA420 OVCA cell line; test: CellTiter-Blue cell viability assay, OVCA420; assay type: cell-based; settings: Homo sapiens, OVCA 420; OVCA420 cells, 72 hours, growth/viability
Text: as §1, §2

[26] = tested on: Dov13 OVCA cell line; test: CellTiter-Blue cell viability assay, Dov13; assay type: cell-based; settings: Homo sapiens; Dov13 cells, 72 hours, growth/viability
Text: as §1, §2

[27] = tested on: IGR-OV1 OVCA cell line; test: CellTiter-Blue cell viability assay, IGR-OV1; assay type: cell-based; settings: Homo sapiens, IGROV-1; IGR-OV1 cells, 72 hours, growth/viability
Text: as §1, §2

[28] = tested on: OVCA432 OVCA cell line; test: CellTiter-Blue cell viability assay, OVCA432; assay type: cell-based; settings: Homo sapiens; OVCA432 cells, 72 hours, growth/viability
Text: as §1, §2

[29] = tested on: IMCC5 OVCA cell line; test: CellTiter-Blue cell viability assay, IMCC5; assay type: cell-based; settings: Homo sapiens; IMCC5 cells, 72 hours, growth/viability
Text: as §1, §2

[30] = tested on: HeyA8 OVCA cell line; test: CellTiter-Blue cell viability assay, HeyA8; assay type: cell-based; settings: Homo sapiens, HEY A8; HeyA8 cells, 72 hours, growth/viability
Text: as §1, §2

[31] = tested on: A2780CP OVCA cell line; test: CellTiter-Blue cell viability assay, A2780CP; assay type: cell-based; settings: Homo sapiens, A2780C/P; A2780CP cells, 72 hours, growth/viability
Text: as §1, §2

[32] = tested on: M41 OVCA cell line; test: CellTiter-Blue cell viability assay, M41; assay type: cell-based; settings: Homo sapiens; M41 cells, 72 hours, growth/viability
Text: as §1, §2

[33] = tested on: CAOV3 OVCA cell line; test: CellTiter-Blue cell viability assay, CAOV3; assay type: cell-based; settings: Homo sapiens, Caov-3; CAOV3 cells, 72 hours, growth/viability
Text: as §1, §2

[34] = tested on: IMCC3 OVCA cell line; test: CellTiter-Blue cell viability assay, IMCC3; assay type: cell-based; settings: Homo sapiens; IMCC3 cells, 72 hours, growth/viability
Text: as §1, §2

[35] = tested on: SK-OV-3 OVCA cell line; test: CellTiter-Blue cell viability assay, SK-OV-3; assay type: cell-based; settings: Homo sapiens; SK-OV-3 cells, 72 hours, growth/viability
Text: as §1, §2

[36] = tested on: OVCAR10 OVCA cell line; test: CellTiter-Blue cell viability assay, OVCAR10; assay type: cell-based; settings: Homo sapiens; OVCAR10 cells, 72 hours, growth/viability
Text: as §1, §2

[37] = tested on: OVCAR3 OVCA cell line; test: CellTiter-Blue cell viability assay, OVCAR3; assay type: cell-based; settings: Homo sapiens, OVCAR-3; OVCAR3 cells, 72 hours, growth/viability
Text: as §1, §2

[38] = tested on: OVCAR5 OVCA cell line; test: CellTiter-Blue cell viability assay, OVCAR5; assay type: cell-based; settings: Homo sapiens, OVCAR-5; OVCAR5 cells, 72 hours, growth/viability
Text: as §1, §2

[39] = tested on: MCAS OVCA cell line; test: CellTiter-Blue cell viability assay, MCAS; assay type: cell-based; settings: Homo sapiens; MCAS cells, 72 hours, growth/viability
Text: as §1, §2

[40] = tested on: T8 OVCA cell line; test: CellTiter-Blue cell viability assay, T8; assay type: cell-based; settings: Homo sapiens; T8 cells, 72 hours, growth/viability
Text: as §1, §2

[41] = tested on: OVCA429 OVCA cell line; test: CellTiter-Blue cell viability assay, OVCA429; assay type: cell-based; settings: Homo sapiens; OVCA429 cells, 72 hours, growth/viability
Text: as §1, §2

[42] = tested on: OVCAR4 OVCA cell line; test: CellTiter-Blue cell viability assay, OVCAR4; assay type: cell-based; settings: Homo sapiens, OVCAR-4; OVCAR4 cells, 72 hours, growth/viability
Text: as §1, §2

## Nc1ccn([C@@H]2O[C@H](CO)[C@@H](O)C2(F)F)c(=O)n1 [Gemcitabine, 2′,2′-difluorodeoxycytidine]
[1]
  IC50: 384 nM
[2]
  IC50: 865 nM
[3]
  IC50: 37.4 nM
[4]
  IC50: 269 nM
[5]
  IC50: 9.9 nM
[6]
  IC50: 135 nM
[7]
  IC50: 536 nM
[8]
  IC50: 59400 nM
[9]
  IC50: 3900 nM
[10]
  IC50: 4.6 nM
[11]
  IC50: 18.9 nM
[12]
  IC50: 3500 nM
[13]
  IC50: 44500 nM
[14]
  IC50: 51.8 nM
[15]
  IC50: 30400 nM
[16]
  response rates: up to 19%
[17]
  IC50: 764 nM
[18]
  IC50: 273 nM
[19]
  IC50: 23.7 nM
[20]
  IC50: 3.3 nM
[21]
  IC50: 8.5 nM
[22]
  IC50: 418 nM
[23]
  IC50: 22 nM
[24]
  IC50: 164 nM
[25]
  IC50: 12700 nM
[26]
  IC50: 6 nM
[27]
  IC50: 531 nM
[28]
  IC50: 14900 nM
[29]
  IC50: 105 nM
[30]
  IC50: 1500 nM
[31]
  IC50: 366 nM
[32]
  IC50: 39.5 nM
[33]
  IC50: 2.2 nM
[34]
  IC50: 943 nM
[35]
  IC50: 16100 nM
[36]
  IC50: 672 nM
[37]
  IC50: 6200 nM
[38]
  IC50: 278 nM
[39]
  IC50: 56400 nM
[40]
  IC50: 256 nM
[41]
  IC50: 22.2 nM
[42]
  IC50: 655 nM
